Laboratory results as given in patent US11702443B2, “Therapeutic agents and methods” (Pop Test Oncology LLC, priority 2016, dated 2023).
≈ marks a conversion by molar mass, not a printed value. Entries after “also recorded” stand apart in the source; their conditions may differ. Like-named read-outs stand apart in the source and are kept apart here.

Legend:
[1] = Host cytotoxicity in HBV assay; details: human, HepG2 2.2.15 cells
[2] = tested on: Human Hepatitis B Virus Subtype ayw; assay: In vitro antiviral activity versus HBV ayw replication, DNA (Southern) hybridization; format: cell-based; details: HepG2 2.2.15
[3] = tested on: Proteus vulgaris ATCC 881; details: cited from earlier work
[4] = tested on: Staphylococcus aureus Tour Rif-resistant; details: cited from earlier work
[5] = cited from earlier work
[6] = tested on: Mycobacterium tuberculosis virulent standard strain H37Rv; assay: Standard resazurin-resorufin assay versus M. tuberculosis H37Rv; format: cell-based
[7] = tested on: Staphylococcus aureus ATCC 6538; details: cited from earlier work
[8] = tested on: Streptococcus haemolyticus = S. pyogenes C 203; details: Streptococcus haemolyticus C 203, cited from earlier work
[9] = in vivo; cited from earlier work
[10] = tested on: Escherichia coli ATCC 10536; details: cited from earlier work
[11] = tested on: Klebsiella pneumoniae ATCC 10031; details: cited from earlier work
[12] = tested on: Staphylococcus aureus Tour; details: cited from earlier work
[13] = tested on: Mycobacterium tuberculosis ATCC 9360 H37Rv; details: cited from earlier work
[14] = tested on: Pseudomonas aeruginosa ATCC 10145; details: cited from earlier work
[15] = tested on: Diplococcus pneumoniae = Streptococcus pneumoniae U.C. 41; details: Diplococcus pneumoniae U.C. 41; cited from earlier work
[16] = tested on: Staphylococcus aureus infection; details: cited from earlier work
[17] = tested on: Bacillus megaterium; assay: Activity versus Bacillus megaterium; format: cell-based
[18] = Hydrolysis in formic acid-acidified (0.05%) HPLC eluent; format: physicochemical; details: compared with rifampicin
Description: Compound stock solutions were diluted to 2 mM in DMSO and injected into an Agilent 1100 HPLC system using the following conditions for separation: Phenomenex Gemini C18 column, 3×50 mm; flow rate 0.45 ml/min; gradient 5-95% acetonitrile in water over 8 min with all solvents containing 0.05% formic acid. Detection used the following: UV detector—Agilent diode array, monitored at 214 and 254 nm; mass spectrometry detector (MSD)—Agilent MSD, electrospray ionization, positive mode.
The chromatographic separation of TPR-1 is given in FIGS. 15A to C. • There are four peaks (4.462 min, 4.951 min, 5.657 min, 6.679 min) at 214 nm and 254 nm diode array UV detection • No other significant peaks are seen • The two main peaks (4.951 min, 5.657 min) stem from the two discernible, coexisting ionic forms of the rifamycin.
[drawing 32] • In the above picture the left formula is zwitterionic, whereas the right formula is cationic. The zwitterionic form elutes at 4.951 min, since it is more polar, and the cationic form elutes at 5.657 min, since it is more lipophilic. The cationic form was integrated by IDRI as 59%. So the cationic form dominates in the formic acid-acidified (0.05%) HPLC eluent, as to be expected • The two small side peaks stem from hydrolysis of TPR-1 by the formic acid-acidified (0.05%) HPLC eluent. This is a phenomenon well-known for rifampcin (Ref. 2). […]

[19] = tested on: NF-κB; assay: NF-κB-luciferase reporter in mixed cultures of primary astrocytes and microglia; format: cell-based, mice; details: 1 μM, 10 μM and 100 μM, 3 hours; then Poly I:C, LPS or TNFα for 24 h
[20] = Chemical stability (atmospheric oxygen, hydrolysis, UV light)
[21] = tested on: B. subtilis; assay: Agar Disk Diffusion Assay with B. subtilis; format: cell-based, Bacillus subtilis
[22] = tested on: cancer cells; assay: Cytotoxicity to cancer cells; format: cell-based
[23] = tested on: HepG2 2.2.15; assay: Host cytotoxicity in HBV assay; details: HepG2 2.2.15; rows of RT-qPCR assay
[24] = tested on: Human Hepatitis B Virus Subtype ayw; assay: In vitro antiviral activity versus HBV ayw replication, RT-qPCR; format: cell-based; details: HepG2 2.2.15
[25] = Solubility
[26] = strain H37Rv, read-out: Minimal inhibitory concentration 99% (MIC99) in nmol/Liter
[27] = strain H37Rv, read-out: Minimal inhibitory concentration 99% (MIC99) in μg/ml

## Nc1ccn([C@@H]2CS[C@H](CO)O2)c(=O)n1 [Lamivudine]
[1]
  CC50: 2190 µM
[2]
  EC50: 0.026 µM
  EC90: 0.116 µM

## CO/N=C/c1c2c(O)c3c(O)c(C)c4c(c3c1O)C(=O)[C@@](C)(O/C=C/[C@H](OC)[C@@H](C)[C@@H](OC(C)=O)[C@H](C)[C@H](O)[C@H](C)[C@@H](O)[C@@H](C)/C=C/C=C(/C)C(=O)N2)O4 [MR-1, (2S,12Z,14E,16S,17S,18R,19R,20R,21S,22R,23S,24E)-21-(acetyloxy)-5,6,9,17,19-pentahydroxy-23-methoxy-8-[(E)-(methoxyimino)methyl]-2,4,12,16,18,20,22-heptamethyl-2,7-(epoxypentadeca[1,11,13]trienimino)naphtho[2,1-b]furan-1,11(2H)-dione]
[3]
  MIC (μg/ml) reference 1 (1966): 2 µg/mL (≈ 2.65 µM)
  MIC (μg/ml) reference 2 (1974): 2 µg/mL (≈ 2.65 µM)
[4]
  MIC (μg/ml) reference 2 (1974): >100 µg/mL
[5]
  In vivo lethal dose 50% (LD50) (mg/kg) intravenous in mice: 152 mg/kg
[6]; [26]
  MIC99: 106 nmol/L
[6]; [27]
  MIC99: 0.08 µg/mL
[7]
  MIC (μg/ml) reference 1 (1966): 0.0005 µg/mL (≈ 0.000662 µM)
[8]
  MIC (μg/ml) reference 1 (1966): 0.01 µg/mL (≈ 0.0132 µM)
  MIC (μg/ml) reference 2 (1974): 0.01 µg/mL (≈ 0.0132 µM)
[9]
  Oral bioavailability: more orally bioavailable than OR-1
[10]
  MIC (μg/ml) reference 1 (1966): 5 µg/mL (≈ 6.62 µM)
  MIC (μg/ml) reference 2 (1974): 5 µg/mL (≈ 6.62 µM)
[11]
  MIC (μg/ml) reference 1 (1966): 10 µg/mL (≈ 13.2 µM)
  MIC (μg/ml) reference 2 (1974): 10 µg/mL (≈ 13.2 µM)
[12]
  MIC (μg/ml) reference 2 (1974): 0.002 µg/mL (≈ 0.00265 µM)
[13]
  MIC (μg/ml) reference 1 (1966): 0.1 µg/mL (≈ 0.132 µM)
  MIC (μg/ml) reference 2 (1974): 0.05 µg/mL (≈ 0.0662 µM)
[14]
  MIC (μg/ml) reference 1 (1966): 10 µg/mL (≈ 13.2 µM)
  MIC (μg/ml) reference 2 (1974): 10 µg/mL (≈ 13.2 µM)
[15]
  MIC (μg/ml) reference 2 (1974): 0.01 µg/mL (≈ 0.0132 µM)
[16]
  In vivo effective dose 50% (ED50) (mg/kg) in curing Staphylococcus aureus infection in mice, per os: 0.53 mg/kg
  In vivo effective dose 50% (ED50) (mg/kg) in curing Staphylococcus aureus infection in mice, subcutaneous: 0.87 mg/kg

## CO[C@H]1/C=C/O[C@@]2(C)Oc3c(C)c(O)c4c(O)c(c(/C=N/O)c(O)c4c3C2=O)NC(=O)/C(C)=C\C=C\[C@H](C)[C@H](O)[C@@H](C)[C@@H](O)[C@@H](C)[C@H](OC(C)=O)[C@@H]1C [OR-1, 3-Formylrifamycin SV (E)-oxime 1.2 hydrate]
[3]
  MIC (μg/ml) reference 1 (1966): 10 µg/mL
  MIC (μg/ml) reference 2 (1974): 10 µg/mL
[4]
  MIC (μg/ml) reference 2 (1974): >100 µg/mL
[5]
  In vivo lethal dose 50% (LD50) (mg/kg) intravenous in mice: 690 mg/kg
[6]; [26]
  MIC99: 787 nmol/L
[6]; [27]
  MIC99: 0.6 µg/mL
[7]
  MIC (μg/ml) reference 1 (1966): 0.02 µg/mL
[8]
  MIC (μg/ml) reference 1 (1966): 0.01 µg/mL
  MIC (μg/ml) reference 2 (1974): 0.01 µg/mL
[9]
  Oral bioavailability: orally bioavailable
[10]
  MIC (μg/ml) reference 1 (1966): 5 µg/mL
  MIC (μg/ml) reference 2 (1974): 5 µg/mL
[11]
  MIC (μg/ml) reference 1 (1966): 20 µg/mL
  MIC (μg/ml) reference 2 (1974): 20 µg/mL
[12]
  MIC (μg/ml) reference 2 (1974): 0.02 µg/mL
[13]
  MIC (μg/ml) reference 1 (1966): 5 µg/mL
  MIC (μg/ml) reference 2 (1974): 5 µg/mL
[14]
  MIC (μg/ml) reference 1 (1966): 10 µg/mL
  MIC (μg/ml) reference 2 (1974): 10 µg/mL
[15]
  MIC (μg/ml) reference 2 (1974): 0.01 µg/mL
[16]
  In vivo effective dose 50% (ED50) (mg/kg) in curing Staphylococcus aureus infection in mice, per os: 5.66 mg/kg
  In vivo effective dose 50% (ED50) (mg/kg) in curing Staphylococcus aureus infection in mice, subcutaneous: 2.46 mg/kg

## CO[C@H]1/C=C/O[C@@]2(C)Oc3c(C)c(O)c4c(O)c(c(/C=N/N5CCN(C)CC5)c(O)c4c3C2=O)NC(=O)/C(C)=C\C=C\[C@H](C)[C@H](O)[C@@H](C)[C@@H](O)[C@@H](C)[C@H](OC(C)=O)[C@@H]1C [Rifampicin, reference compound]
[6]; H37RV, read-out: Minimal inhibitory concentration 99% (MIC99) in nmol/Liter (nM)
  MIC99: 72.7 nmol/L
[6]; H37RV, read-out: Minimal inhibitory concentration 99% (MIC99) in μg/ml
  MIC99: 0.06 µg/mL

## CO[C@H]1/C=C/O[C@@]2(C)Oc3c(C)c(O)c4c(O)c(c(/C=N/N5CC[N+](C)(CC#C[Si](C)(C)C)CC5)c([O-])c4c3C2=O)NC(=O)/C(C)=C\C=C\[C@H](C)[C@H](O)[C@@H](C)[C@@H](O)[C@@H](C)[C@H](OC(C)=O)[C@@H]1C [TPR-1, Nω[3-(Trimethylsilyl)prop-2-yn-1-yl]rifampicinium-4-olate×¾ HBr×H2O]
[6]; [26]
  MIC99: 19.8 to 39.5 nmol/L
[6]; [27]
  MIC99: 0.02 to 0.04 µg/mL
[17]
  Activity versus Bacillus megaterium: highly active
[18]
  Susceptibility to hydrolysis of the hydrazone imine group in acidic media: more susceptible to this hydrolysis than rifampicin
[19]
  Luciferase activity (suppression of inflammation): dose dependent decrease of luciferase activity
[20]
  Oxidation by atmospheric oxygen: not oxidized by atmospheric oxygen; also recorded: resistant to oxidation
  Stability towards hydrolysis and UV light: enhanced stability towards hydrolysis and UV light
[21]
  Activity versus Bacillus subtilis: highly active
[21]; Bacillus subtilis, paper disc with 1 μg, overnight at 30° C., read-out: Clearance zones (in mm)
  zone of inhibition at 1 µg/disc: 18.3 mm
[21]; Bacillus subtilis, paper disc with 10 μg, overnight at 30° C., read-out: Clearance zones (in mm)
  zone of inhibition at 10 µg/disc: 21.1 mm

## (11,17)-17-Hydroperoxy-11-[3,4-(methylenedioxy)phenyl]-17-(1-propyn-1-yl)estra-4,9-dien-3-one-(11,17)-17-hydroxy-11-[3,4-(methylenedioxy)phenyl]-17-(1-propyn-1-yl)estra-4,9-dien-3-one (1:1) [PT157]
[19]
  Luciferase activity (suppression of inflammation): dose dependent decrease of luciferase activity

## Tetrakis{3-[(tricyclo[3.3.1.1^3,7]decan-1-ammonio)methyl]benzyl}ammonium pentachloride [PT162]
[22]
  Cytotoxicity to cancer cells: extremely cytotoxic to cancer cells

## ⅓(11β,17β)-17-Hydroxy-11-[3,4-(methylenedioxy)phenyl]-17-(1-propyn-1-yl)estra-4,9-dien-3-one (PT150)×(2EZ)-2-{(11β,17β)-17-hydroxy-11-[3,4-(methylenedioxy)phenyl]-17-(1-propyn-1-yl)estra-4,9-dien-3-ylidene}hydrazinecarbothioamide [71.8% (E), 28.2% (Z)]×⅓ H2O× 7/9 acetone [PT155]
[23]
  CC50: > 100 µM
[24]
  EC50: 10.8 µM
  EC90: > 100 µM
[19]
  Luciferase activity (suppression of inflammation): dose dependent decrease of luciferase activity
[25]; ethanol, acetone, DMSO, DMF, ethyl acetate, and chloroform
  Solubility in organic solvents: very soluble
[25]; water
  Solubility in water: not soluble in water initially
